Measured values from patent US20050009840A1 (SUGEN, INC., priority 2003, published 2005).

The molecules below were run against T1, HGFR (Homo sapiens, UniProt P08581) (assay: HGFR continuous-coupled spectrophotometric assay). Details: Table 3, column 'Ki (μM) or I (%)': cells without % sign; read-out: Ki.
T1 construct: purchased Upstate 14-526
T1 sequence (P08581 974-1390 limits assumed): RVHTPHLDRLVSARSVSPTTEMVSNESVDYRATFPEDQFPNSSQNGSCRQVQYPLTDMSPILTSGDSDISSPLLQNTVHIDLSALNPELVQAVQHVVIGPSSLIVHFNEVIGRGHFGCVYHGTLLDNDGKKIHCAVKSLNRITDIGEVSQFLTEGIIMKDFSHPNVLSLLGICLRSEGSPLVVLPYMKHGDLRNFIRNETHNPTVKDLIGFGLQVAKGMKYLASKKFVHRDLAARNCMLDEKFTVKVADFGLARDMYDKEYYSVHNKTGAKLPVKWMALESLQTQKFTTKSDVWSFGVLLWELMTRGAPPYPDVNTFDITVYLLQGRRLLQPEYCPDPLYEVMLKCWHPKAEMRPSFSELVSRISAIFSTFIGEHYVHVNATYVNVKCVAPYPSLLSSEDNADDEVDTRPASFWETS
Assay type: biochemical
In the case of `CC(Oc1cc(-c2ccc(F)c(C#N)c2)cnc1N)c1c(Cl)ccc(F)c1Cl` (stereo not shown) [Example I-544, 5-{6-Amino-5-[1-(2,6-dichloro-3-fluoro-phenyl)-ethoxy]-pyridin-3-yl}-2-fluoro-benzonitrile], the Ki is reported as 0.091 µM. For `CC(Oc1cc(-c2ccc(C(=O)N3CCCCC3)cc2)cnc1N)c1c(Cl)ccc(F)c1Cl` (stereo not shown) [Example I-546, (4-{6-Amino-5-[1-(2,6-dichloro-3-fluoro-phenyl)-ethoxy]-pyridin-3-yl}-phenyl)-pipendin-1-yl-methanone], the Ki was 0.057 µM. `CC(Oc1cc(-c2ccc(C(=O)N3CCCC3)cc2)cnc1N)c1c(Cl)ccc(F)c1Cl` (stereo not shown) [Example I-547, (4-{6-Amino-5-[1-(2,6-dichloro-3-fluoro-phenyl)-ethoxy]-pyridin-3-yl}-phenyl)-pyrrolidin-1-yl-methanone] showed a Ki of 0.067 µM. Molecule `CC(Oc1cc(-c2ccc(CN3C[C@@H](C)N[C@@H](C)C3)cc2)cnc1N)c1c(Cl)ccc(F)c1Cl` (stereo partly shown) [Example I-549, 3-[1-(2,6-Dichloro-3-fluoro-phenyl)-ethoxy]-5-[4-(dimethyl-piperazin-1-ylmethyl)-phenyl]-pyridin-2-ylamine] has a Ki of 0.095 µM. In the case of `CC(Oc1cc(-c2ccc(C(=O)N3C[C@@H](C)N[C@@H](C)C3)c(F)c2)cnc1N)c1c(Cl)ccc(F)c1Cl` (stereo partly shown) [Example I-551, (4-{6-Amino-5-[1-(2,6-dichloro-3-fluoro-phenyl)-ethoxy]-pyridin-3-yl}-2-fluoro-phenyl)-(dimethyl-piperazin-1-yl)-methanone], the Ki is reported as 0.091 µM. `CC(Oc1cc(-c2ccc(C(=O)N3C[C@@H](C)N[C@@H](C)C3)cc2F)cnc1N)c1c(Cl)ccc(F)c1Cl` (stereo partly shown) [Example I-552, (4-{6-Amino-5-[1-(2,6-dichloro-3-fluoro-phenyl)-ethoxy]-pyridin-3-yl}-3-fluoro-phenyl)-(dimethyl-piperazin-1-yl)-methanone] was tested, and the Ki was 0.224 µM. In the case of `Cc1cc(C(=O)N2C[C@@H](C)N[C@@H](C)C2)ccc1-c1cnc(N)c(OC(C)c2c(Cl)ccc(F)c2Cl)c1` (stereo partly shown) [Example I-553, (4-{6-Amino-5-[1-(2,6-dichloro-3-fluoro-phenyl)-ethoxy]-pyridin-3-yl)-3-methyl-phenyl)-(dimethyl-piperazin-1-yl)-methanone], the Ki is reported as 0.259 µM. `CC(Oc1cc(-c2ccc(C(=O)N3C[C@@H](C)O[C@@H](C)C3)cc2)cnc1N)c1c(Cl)ccc(F)c1Cl` (stereo partly drawn) [Example I-554, (4-{6-Amino-5-[1-(2,6-dichloro-3-fluoro-phenyl)-ethoxy]-pyridin-3-yl}-phenyl)-((2R,6S)-2,6-dimethyl-morpholin-4-yl)-methanone] was tested, and the Ki was 0.141 µM. In the case of `COc1ccc(OC)c(-c2cnc(N)c(OC(C)c3c(Cl)ccc(F)c3Cl)c2)c1` (stereo not shown) [Example I-556, 3-[1-(2,6-Dichloro-3-fluoro-phenyl)-ethoxy]-5-(2,5-dimethoxy-phenyl)-pyridin-2-ylamine], the Ki is reported as 0.575 µM. For `COc1ccc(-c2cnc(N)c(OC(C)c3c(Cl)ccc(F)c3Cl)c2)c(OC)c1` (stereo not shown) [Example I-557, 3-[1-(2,6-Dichloro-3-fluoro-phenyl)-ethoxy]-5-(2,4-dimethoxy-phenyl)-pyridin-2-ylamine], the Ki was 0.217 µM. `COc1ccccc1-c1cnc(N)c(OC(C)c2c(Cl)ccc(F)c2Cl)c1` (stereo not shown) [Example I-566, 3-[1-(2,6-Dichloro-3-fluoro-phenyl)-ethoxy]-5-(2-methoxy-phenyl)-pyridin-2-ylamine] was tested, and the Ki was 0.278 µM. Work on `CC(Oc1cc(-c2ccc(C(=O)N3CCOCC3)cc2)cnc1N)c1c(Cl)ccc(F)c1Cl` (stereo not shown) [Example I-568, (4-{6-Amino-5-[1-(2,6-dichloro-3-fluoro-phenyl)-ethoxy]-pyridin-3-yl}-phenyl)-morpholin-4-yl-methanone] yielded a Ki of 0.0525 µM. Molecule `CC(Oc1cc(-c2ccc(C(=O)N3C[C@@H](C)N[C@@H](C)C3)c(Cl)c2)cnc1N)c1c(Cl)ccc(F)c1Cl` (stereo partly drawn) [Example I-569, (4-{6-Amino-5-[1-(2,6-dichloro-3-fluoro-phenyl)-ethoxy]-pyridin-3-yl}-2-chloro-phenyl)-((3R,5S)-dimethyl-piperazin-1-yl)-methanone] has a Ki of 0.0478 µM. Molecule `Cc1cc(-c2cnc(N)c(OC(C)c3c(Cl)ccc(F)c3Cl)c2)ccc1C(=O)N1C[C@@H](C)N[C@@H](C)C1` (stereo partly shown) [Example I-570] has a Ki of 0.225 µM. For `CC(Oc1cc(-c2ccc(CN3C[C@@H](C)O[C@@H](C)C3)cc2)cnc1N)c1c(Cl)ccc(F)c1Cl` (stereo partly drawn) [Example I-571, 3-[1-(2,6-Dichloro-3-fluoro-phenyl)-ethoxy]-5-[4-((2R,6S)-2,6-dimethyl-morpholin-4-ylmethyl)-phenyl]-pyridin-2-ylamine], the Ki was 0.22 µM. For `CC(Oc1cc(-c2ccc(CN3CCOCC3)cc2)cnc1N)c1c(Cl)ccc(F)c1Cl` (stereo not shown) [Example I-572, 3-[1-(2,6-Dichloro-3-fluoro-phenyl)-ethoxy]-5-(4-morpholin-4-ylmethyl-phenyl)-pyridin-2-ylamine], the Ki was 0.0554 µM. With `CC(Oc1cc(-c2ccc(C(=O)N3CCCN(C)CC3)cc2)cnc1N)c1c(Cl)ccc(F)c1Cl` (stereo not shown) [Example I-603, (4-{6-Amino-5-[1-(2,6-dichloro-3-fluoro-phenyl)-ethoxy]-pyridin-3-yl}-phenyl)-(4-methyl-[1,4]-diazepan-1-yl)-methanone] the Ki was 0.0095 µM. `CC(Oc1cc(-c2ccc(C(=O)N3CCCNCC3)cc2)cnc1N)c1c(Cl)ccc(F)c1Cl` (stereo not shown) [Example I-604, (4-{6-Amino-5-[1-(2,6-dichloro-3-fluoro-phenyl)-ethoxy]-pyridin-3-yl}-phenyl)-[1,4]diazepan-1-yl-methanone] was tested, and the Ki was 0.031 µM. Molecule `CC(Oc1cc(-c2ccc(C(=O)N3CCNCC3)cc2)cnc1N)c1c(Cl)ccc(F)c1Cl` (stereo not shown) [Example I-605, (4-{6-Amino-5-[1-(2,6-dichloro-3-fluoro-phenyl)-ethoxy]-pyridin-3-yl}-phenyl)-piperazin-1-yl-methanone] has a Ki of 0.0475 µM. With `C=Cc1cnc(N)c(OC(C)c2c(Cl)ccc(F)c2Cl)c1` (stereo not shown) [Example I-606, 3-[1-(2,6-Dichloro-3-fluoro-phenyl)-ethoxy]-5-vinyl-pyridin-2-ylamine] the Ki was 0.655 µM. `CC(Oc1cc(-c2ccc(C(=O)N3C[C@@H](O)[C@@H](O)C3)cc2)cnc1N)c1c(Cl)ccc(F)c1Cl` (stereo partly drawn) [Example I-607, (4-{6-Amino-5-[1-(2,6-dichloro-3-fluoro-phenyl)-ethoxy]-pyridin-3-yl}-phenyl)-((3R,4S)-3,4-dihydroxy-pyrrolidin-1-yl)-methanone] gave a Ki of 0.058 µM. `CC(Oc1cc(-c2ccc(C(=O)NC3CNC3)cc2)cnc1N)c1c(Cl)ccc(F)c1Cl` (stereo not shown) [Example I-609, 4-{6-Amino-5-[1-(2,6-dichloro-3-fluoro-phenyl)-ethoxy]-pyridin-3-yl}-N-azetidin-3-yl-benzamide] was tested, and the Ki was 0.045 µM. In the case of `CC(Oc1cc(-c2ccc(S(=O)(=O)N(C)C)cc2)cnc1N)c1c(Cl)ccc(F)c1Cl` (stereo not shown) [Example I-610, 4-{6-Amino-5-[1-(2,6-dichloro-3-fluoro-phenyl)-ethoxy]-pyridin-3-yl}-N,N-dimethyl-benzenesulfonamide], the Ki is reported as 0.069 µM. Molecule `CCN1CCN(C(=O)c2ccc(-c3cnc(N)c(OC(C)c4c(F)ccc(F)c4Cl)c3)cc2)CC1` (stereo not shown) [Example I-622, (4-{6-Amino-5-[1-(2-chloro-3,6-difluoro-phenyl)-ethoxy]-pyridin-3-yl}-phenyl)-(4-ethyl-piperazin-1-yl)-methanone] has a Ki of 0.375 µM.

Same assay, conditions: cells prefixed Ki; read-out: Met Ki
In the case of `CC(Oc1cc(-c2cnn(CCN(C(C)C)C(C)C)c2)cnc1N)c1c(Cl)ccc(F)c1Cl` (stereo not shown) [Example I-466, 3-[1-(2,6-Dichloro-3-fluoro-phenyl)-ethoxy]-5-[1-(2-diisopropylamino-ethyl)-1H-pyrazol-4-yl]-pyridin-2-yl amine], the Ki is reported as 0.47 µM. `CC(Oc1cc(-c2cnn(CCN3CCOCC3)c2)cnc1N)c1c(Cl)ccc(F)c1Cl` (stereo not shown) [Example I-467, 3-[1-(2,6-Dichloro-3-fluoro-phenyl)-ethoxy]-5-[1-(2-morpholin-4-yl-ethyl)-1H-pyrazol-4-yl]-pyridin-2-ylamine] showed a Ki of 0.083 µM. `CC(C)Oc1c(F)cccc1COc1cc(Br)cnc1N` [Example I-472, 5-Bromo-3-(3-fluoro-2-isopropoxy-benzyloxy)-pyridin-2-ylamine] showed a Ki of 12.1 µM. With `CC(C)Oc1c(F)cccc1COc1cc(-c2ccc(C(=O)N3C[C@@H](C)N[C@@H](C)C3)cc2)cnc1N` [Example I-473, {4-[6-Amino-5-(3-fluoro-2-isopropoxy-benzyloxy)-pyridin-3-yl]-phenyl}-((3R,5S)-3,5-dimethyl-piperazin-1-yl)-methanone] the Ki was 12.7 µM. Work on `COC(=O)COc1ccc(-c2cnc(N)c(OC(C)c3c(Cl)ccc(F)c3Cl)c2)cc1` (stereo not shown) [Example I-475, (4-{6-Amino-5-[1-(2,6-dichloro-3-fluoro-phenyl)-ethoxy]-pyridin-3-yl}-phenoxy)-acetic acid methyl ester] yielded a Ki of 0.2 µM. `CC(Oc1cc(-c2ccc(OCC(=O)O)cc2)cnc1N)c1c(Cl)ccc(F)c1Cl` (stereo not shown) [Example I-476, (4-{6-Amino-5-[1-(2,6-dichloro-3-fluoro-phenyl)-ethoxy]-pyridin-3-yl}-phenoxy)-acetic acid] gave a Ki of 0.2 µM. With `CC(Oc1cc(-c2ccc(OCC(=O)N3C[C@@H](C)N[C@@H](C)C3)cc2)cnc1N)c1c(Cl)ccc(F)c1Cl` (stereo partly drawn) [Example I-477, 2-(4-{6-Amino-5-[1-(2,6-dichloro-3-fluoro-phenyl)-ethoxy]-pyridin-3-yl}-phenoxy)-1-((3R,5S)-3,5-dimethyl-piperazin-1-yl)-ethanone] the Ki was 0.027 µM. `CC(Oc1cc(-c2ccc(OCC(=O)N3CC[C@@H](O)C3)cc2)cnc1N)c1c(Cl)ccc(F)c1Cl` (stereo partly drawn) [Example I-478, 2-(4-{6-Amino-5-[1-(2,6-dichloro-3-fluoro-phenyl)-ethoxy]-pyridin-3-yl}-phenoxy)-1-((R)-3-hydroxy-pyrrolidin-1-yl)-ethanone] gave a Ki of 0.041 µM. `CC(Oc1cc(-c2ccc(OCC(=O)N3CCN(C(=O)OC(C)(C)C)CC3)cc2)cnc1N)c1c(Cl)ccc(F)c1Cl` (stereo not shown) [Example I-479, 4-[2-(4-{6-Amino-5-[1-(2,6-dichloro-3-fluoro-phenyl)-ethoxy]-pyridin-3-yl}-phenoxy)-acetyl]-piperazine-1-carboxylic acid tert-butyl ester] showed a Ki of 0.16 µM. For `CC(Oc1cc(-c2ccc(OCCN3CCCC3)cc2)cnc1N)c1cccc(F)c1Cl` (stereo not shown) [Example I-487, 3-[1-(2-Chloro-3-fluoro-phenyl)-ethoxy]-5-[4-(2-pyrrolidin-1-yl-ethoxy)-phenyl]-pyridin-2-ylamine], the Ki was 3.3 µM.
